Among the test systems are SF-268 CNS; SK-OV-3 ovarian; OVCAR-3 ovarian; SNB-19 CNS; UACC-257 melanoma; LOX IMVI melanoma; NCI-H23 lung; HOP-62 NSCLC; RPMI-8226 leukemia.
What all share (test): growth of human tumour cells (NCI), 48 h

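Each compound was tested at five concentrations against cells in 96-well plates for 48 hours. Here, GI50 denotes the concentration required for 50% inhibition of growth. TGI is the concentration that stops growth completely.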

`CC1=NOC(=O)/C1=C/c1ccccc1O`: the TGI in the test with SF-268 CNS, in the test with SK-OV-3 ovarian, with OVCAR-3 ovarian, in the test with SNB-19 CNS, in the test on UACC-257 melanoma and in the test on LOX IMVI melanoma was greater than 100 µM throughout. Besides, the TGI in the test with NCI-H23 lung and with HOP-62 NSCLC was greater than 100 µM throughout.

`c1cc(-c2cn3ccsc3n2)ccn1`: the TGI with SF-268 CNS, in the test on SK-OV-3 ovarian, in the test on OVCAR-3 ovarian, in the test with SNB-19 CNS, in the test on UACC-257 melanoma and in the test on LOX IMVI melanoma was greater than 100 µM throughout. Besides, the TGI in the test with NCI-H23 lung is greater than 100 µM; in the test with HOP-62 NSCLC it was greater than 100 µM; in the test with RPMI-8226 leukemia, greater than 81.4 µM.

With `COCCN1C2=CCCCC2=Nc2c1nc(N)[nH]c2=O`, the TGI with SF-268 CNS, in the test with SK-OV-3 ovarian, in the test on OVCAR-3 ovarian, with SNB-19 CNS, in the test with UACC-257 melanoma and in the test with LOX IMVI melanoma was greater than 100 µM each time. The TGI in the test with NCI-H23 lung, in the test with HOP-62 NSCLC and in the test with RPMI-8226 leukemia was greater than 100 µM each time.

With `CN(C(=O)C12C3C4C5C3C1(C(=O)O)C5C42)C(C)(C)C` (stereo not drawn), the TGI was greater than 100 µM with SF-268 CNS; greater than 100 µM in the test with SK-OV-3 ovarian; greater than 100 µM in the test on OVCAR-3 ovarian; greater than 100 µM in the test with SNB-19 CNS; greater than 100 µM in the test on UACC-257 melanoma; 65.1 µM with LOX IMVI melanoma. The TGI in the test on NCI-H23 lung, in the test with HOP-62 NSCLC and in the test with RPMI-8226 leukemia was greater than 100 µM each time.

For the molecule `O=C(O)c1ccc([Se][Se]c2ccc(C(=O)O)cc2)cc1`, the TGI is greater than 100 µM in the test with SF-268 CNS; 42.9 µM in the test with OVCAR-3 ovarian; greater than 100 µM in the test on SNB-19 CNS; 37.6 µM in the test with NCI-H23 lung; 91.7 µM in the test with RPMI-8226 leukemia.

In the case of `Cc1cccc(NC(=O)CC(=O)N2N=C(N(CCC#N)c3ccc(Cl)cc3)CC2c2ccccc2)c1` (stereo not drawn), the TGI in the test on SF-268 CNS, in the test with OVCAR-3 ovarian, in the test with SNB-19 CNS, with UACC-257 melanoma, with LOX IMVI melanoma and in the test with NCI-H23 lung was greater than 100 µM in each case. The same molecule yielded a TGI with HOP-62 NSCLC greater than 100 µM.

For the molecule `COC(=O)CCC1CCc2c(OC)ccc(O)c2C1=O` (stereo not drawn), the TGI in the test on SF-268 CNS, in the test with SK-OV-3 ovarian, in the test on OVCAR-3 ovarian, with SNB-19 CNS, with UACC-257 melanoma and in the test with LOX IMVI melanoma was greater than 100 µM in each case. The TGI in the test with NCI-H23 lung, with HOP-62 NSCLC and in the test with RPMI-8226 leukemia was greater than 100 µM each time.

With `Cc1cc(N(CCC#N)S(=O)(=O)c2ccccc2)ccc1/C=C1N=C(/C=C/c2ccccc2)OC\1=O`, the TGI in the test with SF-268 CNS, with SK-OV-3 ovarian, in the test on OVCAR-3 ovarian, in the test on SNB-19 CNS, with UACC-257 melanoma and in the test on LOX IMVI melanoma was greater than 100 µM in each case. Also, the TGI with NCI-H23 lung, in the test on HOP-62 NSCLC and in the test with RPMI-8226 leukemia was greater than 100 µM in each case.

In the case of `CC(C)C(=O)Nc1nc2nc[nH]c2c(=O)[nH]1`, the TGI in the test on SF-268 CNS, with SK-OV-3 ovarian, with OVCAR-3 ovarian, in the test with SNB-19 CNS, in the test with UACC-257 melanoma and in the test on LOX IMVI melanoma was greater than 100 µM each time. For the same molecule, the TGI in the test on NCI-H23 lung, in the test on HOP-62 NSCLC and in the test on RPMI-8226 leukemia was greater than 100 µM in each case.

For the molecule `Cc1ccncc1.[O]=[Ge].[O]=[Ge].[O]=[Ge].[O]=[Ge].[O]=[Ge].[O]=[Ge][OH].[O]=[Ge][OH]`, the GI50 in the test on SF-268 CNS, in the test on OVCAR-3 ovarian, with SNB-19 CNS, in the test on UACC-257 melanoma, in the test with LOX IMVI melanoma and in the test on NCI-H23 lung was greater than 100 µM throughout. Moreover, the GI50 in the test on HOP-62 NSCLC and in the test with RPMI-8226 leukemia was greater than 100 µM in each case. Moreover, the TGI in the test with SF-268 CNS, in the test with OVCAR-3 ovarian, with SNB-19 CNS, in the test on UACC-257 melanoma, with LOX IMVI melanoma and with NCI-H23 lung was greater than 100 µM each time. For the same molecule, the TGI in the test with HOP-62 NSCLC and in the test on RPMI-8226 leukemia was greater than 100 µM throughout.

For `N#C/C(=C1\OC(=O)C(c2ccc(Br)cc2)=C1O)c1ccc(Br)cc1`, the TGI was found to be 29.5 µM in the test with SF-268 CNS; 39.9 µM with SK-OV-3 ovarian; 28.2 µM in the test on OVCAR-3 ovarian; 27.5 µM in the test with SNB-19 CNS; 29.5 µM in the test on UACC-257 melanoma; 30.7 µM with LOX IMVI melanoma. The TGI is 26.2 µM with NCI-H23 lung, 33.3 µM in the test on HOP-62 NSCLC and 43.6 µM in the test with RPMI-8226 leukemia.

Take `O=c1c2c([nH]c3cc4c(cc13)OCO4)-c1ccccc1CC2`: the TGI in the test on SF-268 CNS, in the test on OVCAR-3 ovarian, in the test with SNB-19 CNS, in the test with UACC-257 melanoma, in the test with LOX IMVI melanoma and with NCI-H23 lung was greater than 100 µM throughout. In addition, the TGI with HOP-62 NSCLC and in the test with RPMI-8226 leukemia was greater than 100 µM in each case.

In the case of `C=C1C(=O)O[C@H]2[C@H]1[C@H](OC(=O)/C(C)=C\C)CC(=C)[C@@H]1[C@H](O)[C@H]3O[C@@]3(C)[C@@]12O`, the TGI in the test with SF-268 CNS, in the test with SK-OV-3 ovarian, in the test on OVCAR-3 ovarian, in the test with SNB-19 CNS, with LOX IMVI melanoma and with NCI-H23 lung was greater than 100 µM throughout. Moreover, the TGI in the test on HOP-62 NSCLC and in the test on RPMI-8226 leukemia was greater than 100 µM each time.

`O=C([O-])c1ccccc1Nc1ccccn1.O=C([O-])c1ccccc1Nc1ccccn1.[Ni+2]`: the GI50 in the test with SF-268 CNS was 75.7 µM; in the test on SK-OV-3 ovarian it was greater than 100 µM; in the test on OVCAR-3 ovarian it was greater than 100 µM; with SNB-19 CNS, greater than 100 µM; in the test with UACC-257 melanoma it was greater than 100 µM; in the test with LOX IMVI melanoma it was greater than 100 µM. Also, the GI50 in the test on NCI-H23 lung, with HOP-62 NSCLC and in the test on RPMI-8226 leukemia was greater than 100 µM throughout. For the same molecule, the TGI in the test on SF-268 CNS, in the test with SK-OV-3 ovarian, in the test on OVCAR-3 ovarian, in the test on SNB-19 CNS, with UACC-257 melanoma and with LOX IMVI melanoma was greater than 100 µM in each case. For the same molecule, the TGI with NCI-H23 lung, in the test on HOP-62 NSCLC and in the test on RPMI-8226 leukemia was greater than 100 µM each time.

For the origin of these results see PubChem BioAssay (NCI).
